Data on 8 molecules can be found in BindingDB's records for doi:10.7270/Q2Z899VD (Burnham Center For Chemical Genomics, 2010).

For this experiment, the target named is T1, Nucleotide-binding oligomerization domain-containing protein 1 (Homo sapiens, UniProt Q9Y239).
T1 sequence (Q9Y239 whole entry): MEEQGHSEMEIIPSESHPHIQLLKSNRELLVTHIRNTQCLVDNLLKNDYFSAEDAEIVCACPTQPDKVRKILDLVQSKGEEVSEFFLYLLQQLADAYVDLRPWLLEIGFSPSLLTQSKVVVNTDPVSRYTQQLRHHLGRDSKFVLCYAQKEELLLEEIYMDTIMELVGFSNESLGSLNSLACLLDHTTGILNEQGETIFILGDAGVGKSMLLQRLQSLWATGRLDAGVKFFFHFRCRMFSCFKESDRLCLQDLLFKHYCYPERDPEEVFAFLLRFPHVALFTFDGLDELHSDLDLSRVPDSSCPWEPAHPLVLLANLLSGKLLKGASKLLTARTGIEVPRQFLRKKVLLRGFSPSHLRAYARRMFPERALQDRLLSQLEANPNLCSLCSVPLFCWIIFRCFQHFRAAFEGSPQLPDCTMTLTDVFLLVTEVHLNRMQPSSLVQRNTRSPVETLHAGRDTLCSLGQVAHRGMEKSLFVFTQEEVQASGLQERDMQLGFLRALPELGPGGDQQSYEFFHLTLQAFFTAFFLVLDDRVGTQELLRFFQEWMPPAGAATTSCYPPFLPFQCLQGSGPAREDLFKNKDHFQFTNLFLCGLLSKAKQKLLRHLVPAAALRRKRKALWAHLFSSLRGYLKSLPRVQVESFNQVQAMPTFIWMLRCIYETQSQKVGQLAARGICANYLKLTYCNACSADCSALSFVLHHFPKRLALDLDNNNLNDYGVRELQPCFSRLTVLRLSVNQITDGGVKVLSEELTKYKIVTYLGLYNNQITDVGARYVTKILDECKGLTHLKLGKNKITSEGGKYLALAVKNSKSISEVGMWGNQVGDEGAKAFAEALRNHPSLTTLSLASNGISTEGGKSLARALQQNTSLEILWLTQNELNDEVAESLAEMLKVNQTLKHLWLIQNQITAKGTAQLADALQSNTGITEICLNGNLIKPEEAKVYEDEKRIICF
Description: NOD1 signaling inhibitors, SAR follow-up, revised (AID 2333).
A word on the IC50: it is the concentration that gives 50% inhibition. A low value points to higher potency. As for `Cc1cc(SCC(=O)OCC(=O)C(C#N)c2nc3ccccc3[nH]2)c(C)cc1Br` (stereo not drawn), the half-maximal inhibitory concentration (IC50) was above 20 µM.
With `CCCOC1=CC(=O)C(C=NNC(=S)Nc2ccccc2[N+](=O)[O-])C=C1` (stereo not drawn) [1-(2-nitrophenyl)-3-[[(E)-(6-oxo-4-propoxy-1-cyclohexa-2,4-dienylidene)methyl]amino]thiourea] the figure was 7.73 µM.
The value for `Cc1cc(Br)ccc1SCC(=O)OCC(=O)C(C#N)c1nc2ccccc2[nH]1` (stereo not drawn) [2-[(4-bromo-2-methylphenyl)thio]acetic acid [3-cyano-3-(1,3-dihydrobenzimidazol-2-ylidene)-2-oxopropyl] ester] was above 20 µM; that for `Cc1ccc(O)c(/N=C/C2=CC(Cc3ccccc3)C=C([N+](=O)[O-])C2=O)c1` (stereo not drawn) [(6E)-6-[[(5-methyl-2-oxidanyl-phenyl)amino]methylidene]-2-nitro-4-(phenylmethyl)cyclohexa-2,4-dien-1-one] was above 20 µM; that for `Cc1ccc(C)c(SCC(=O)OCC(=O)C(C#N)c2nc3ccccc3[nH]2)c1` (stereo not drawn) [MLS000392255] was above 20 µM.
The value for `N#CC(C(=O)COC(=O)CSc1ccc(Cl)cc1)c1nc2ccccc2[nH]1` (stereo not drawn) [MLS-0208254.0001] was above 20 µM.
Regarding `CCOC1=CC=CC(C=NNC(=S)Nc2ccccc2[N+](=O)[O-])C1=O` (stereo not drawn) [MLS-0270696.0001], the concentration for half-maximal inhibition (IC50) came to 8.23 µM.
The value for `N#CC(C(=O)COC(=O)CSc1ccc2ccccc2c1)c1nc2ccccc2[nH]1` (stereo not drawn) [[3-cyano-3-(1,3-dihydrobenzimidazol-2-ylidene)-2-oxopropyl] 2-naphthalen-2-ylsulfanylacetate] was above 20 µM.
